Data taken from the supplement of paper PMC13380429.

What was measured:
Settings in all cases: 72 h
[1] = tested on: Calu-3; experiment: cell viability relative to DMSO; higher = less toxic
[2] = tested on: Vero E6; experiment: as above
[3] = tested on: HepG2; experiment: as above
[4] = tested on: Caco-2; experiment: as above
[5] = tested on: U2OS; experiment: as above
[6] = tested on: Calu-3; experiment: relative viability EC50 (midpoint between 100% and the lowest measured viability); higher = less toxic
[7] = tested on: Vero E6; experiment: as above
[8] = tested on: HepG2; experiment: as above
[9] = tested on: Caco-2; experiment: as above
[10] = tested on: U2OS; experiment: as above
[11] = tested on: Calu-3; experiment: drug sensitivity score (DSS) for viability; higher = more toxic; extreme values may be limits of the assay
[12] = tested on: Vero E6; experiment: as above
[13] = tested on: HepG2; experiment: as above
[14] = tested on: Caco-2; experiment: as above
[15] = tested on: U2OS; experiment: as above

SMILES | cell viability ([1]; 1 nM) | cell viability ([1]; 10 nM) | cell viability ([1]; 100 nM) | cell viability ([1]; 1000 nM) | cell viability ([1]; 10000 nM) | cell viability ([2]; 1 nM) | cell viability ([2]; 10 nM) | cell viability ([2]; 100 nM) | cell viability ([2]; 1000 nM) | cell viability ([2]; 10000 nM) | cell viability ([3]; 1 nM) | cell viability ([3]; 10 nM) | cell viability ([3]; 100 nM) | cell viability ([3]; 1000 nM) | cell viability ([3]; 10000 nM) | cell viability ([4]; 1 nM) | cell viability ([4]; 10 nM) | cell viability ([4]; 100 nM) | cell viability ([4]; 1000 nM) | cell viability ([4]; 10000 nM) | cell viability ([5]; 1 nM) | cell viability ([5]; 10 nM) | cell viability ([5]; 100 nM) | cell viability ([5]; 1000 nM) | cell viability ([5]; 10000 nM) | relative viability EC50 [6] | relative viability EC50 [7] | relative viability EC50 [8] | relative viability EC50 [9] | relative viability EC50 [10] | drug sensitivity score [11] | drug sensitivity score [12] | drug sensitivity score [13] | drug sensitivity score [14] | drug sensitivity score [15]
Clc1ccccc1CN1CCc2sccc2C1 [ticlopidine] | 101% | 98.3% | 99.6% | 91.7% | 101% | 89% | 97.9% | 98% | 95.6% | 105% | 97.5% | 93% | 107% | 106% | 94.9% | 91.9% | 102% | 93.5% | 93.4% | 99.8% | 98.9% | 91.5% | 97.2% | 102% | 108% | > 10 µM | > 10 µM | > 10 µM | > 10 µM | > 10 µM | 0 | 0 | 0 | 0 | 0
NC1CCN(c2nc3c(cc2F)c(=O)c(C(=O)O)cn3-c2ccc(F)cc2F)C1 (stereo not given) [tosufloxacin] | 95.1% | 103% | 101% | 103% | 124% | 101% | 101% | 108% | 101% | 99.7% | 88.1% | 87.6% | 95.9% | 96.3% | 78.6% | 96% | 99.9% | 111% | 99.4% | 81.7% | 97.3% | 104% | 98.6% | 102% | 95% | > 10 µM | > 10 µM | > 10 µM | > 10 µM | > 10 µM | 0 | 0 | 0 | 0.5 | 0
N[C@@H](Cc1c[nH]c2ccccc12)C(=O)O [tryptophan] | 106% | 97.1% | 107% | 107% | 103% | 99.7% | 108% | 94.4% | 91.3% | 99.8% | 88.3% | 95.1% | 103% | 88.9% | 100% | 105% | 96.6% | 85.7% | 110% | 97.5% | 97.2% | 101% | 101% | 99.1% | 98.1% | > 10 µM | > 10 µM | > 10 µM | > 10 µM | > 10 µM | 0 | 0 | 0 | 0 | 0
